One assay concerns the target ROCK2 (Homo sapiens (Human), UniProt O75116). Briefly: ROCK assay (LABCHIP peptide phosphorylation), ROCK2. In kind it is biochemical. To be noted: 5 μM ATP, 1.5 μM peptide substrate.
For a further assay, the target named is ROCK1 (Homo sapiens (Human), UniProt Q13464). In words: ROCK assay (LABCHIP peptide phosphorylation), ROCK1. In kind it is biochemical. To be noted: 5 μM ATP, 1.5 μM peptide substrate; read-out: ROCK1 IC50.

Each structure is given as a SMILES string.

Chain of ROCK2 (O75116 whole entry, species assumed): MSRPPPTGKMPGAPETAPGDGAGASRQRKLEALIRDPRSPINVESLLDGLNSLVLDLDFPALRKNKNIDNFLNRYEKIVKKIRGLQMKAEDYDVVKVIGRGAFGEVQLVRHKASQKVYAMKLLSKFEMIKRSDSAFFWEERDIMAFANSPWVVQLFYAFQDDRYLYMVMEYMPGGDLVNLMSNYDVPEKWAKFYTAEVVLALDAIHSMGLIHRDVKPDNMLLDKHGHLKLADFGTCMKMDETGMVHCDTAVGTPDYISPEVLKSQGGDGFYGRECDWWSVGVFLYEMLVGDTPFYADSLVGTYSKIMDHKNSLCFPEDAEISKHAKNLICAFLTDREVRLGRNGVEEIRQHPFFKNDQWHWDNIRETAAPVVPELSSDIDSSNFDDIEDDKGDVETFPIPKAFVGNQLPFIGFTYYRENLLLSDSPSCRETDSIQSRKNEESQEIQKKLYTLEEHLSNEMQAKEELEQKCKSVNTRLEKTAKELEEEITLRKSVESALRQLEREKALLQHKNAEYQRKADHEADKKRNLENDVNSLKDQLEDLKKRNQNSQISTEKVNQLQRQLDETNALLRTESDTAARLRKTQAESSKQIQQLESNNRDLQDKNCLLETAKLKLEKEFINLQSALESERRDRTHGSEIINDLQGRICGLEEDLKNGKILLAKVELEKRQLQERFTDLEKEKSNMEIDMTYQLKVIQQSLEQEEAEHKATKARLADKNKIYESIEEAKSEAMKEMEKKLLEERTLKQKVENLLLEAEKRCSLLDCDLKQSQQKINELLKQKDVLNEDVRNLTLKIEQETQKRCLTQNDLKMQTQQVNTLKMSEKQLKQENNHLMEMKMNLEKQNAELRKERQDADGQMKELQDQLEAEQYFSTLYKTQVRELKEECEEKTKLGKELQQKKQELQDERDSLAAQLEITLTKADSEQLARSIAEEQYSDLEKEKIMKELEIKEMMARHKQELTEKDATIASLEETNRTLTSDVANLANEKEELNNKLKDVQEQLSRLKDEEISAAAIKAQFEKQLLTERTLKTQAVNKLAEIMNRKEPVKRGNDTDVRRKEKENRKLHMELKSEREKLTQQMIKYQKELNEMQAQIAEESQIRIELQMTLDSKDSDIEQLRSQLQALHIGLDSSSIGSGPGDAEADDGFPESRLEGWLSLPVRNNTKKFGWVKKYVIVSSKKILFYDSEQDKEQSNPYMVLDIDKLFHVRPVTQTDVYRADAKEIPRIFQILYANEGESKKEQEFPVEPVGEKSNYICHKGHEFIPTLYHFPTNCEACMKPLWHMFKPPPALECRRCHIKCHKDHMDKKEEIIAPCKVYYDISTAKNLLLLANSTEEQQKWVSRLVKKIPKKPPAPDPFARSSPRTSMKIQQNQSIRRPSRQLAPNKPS
Chain of ROCK1 (Q13464 whole entry, species assumed): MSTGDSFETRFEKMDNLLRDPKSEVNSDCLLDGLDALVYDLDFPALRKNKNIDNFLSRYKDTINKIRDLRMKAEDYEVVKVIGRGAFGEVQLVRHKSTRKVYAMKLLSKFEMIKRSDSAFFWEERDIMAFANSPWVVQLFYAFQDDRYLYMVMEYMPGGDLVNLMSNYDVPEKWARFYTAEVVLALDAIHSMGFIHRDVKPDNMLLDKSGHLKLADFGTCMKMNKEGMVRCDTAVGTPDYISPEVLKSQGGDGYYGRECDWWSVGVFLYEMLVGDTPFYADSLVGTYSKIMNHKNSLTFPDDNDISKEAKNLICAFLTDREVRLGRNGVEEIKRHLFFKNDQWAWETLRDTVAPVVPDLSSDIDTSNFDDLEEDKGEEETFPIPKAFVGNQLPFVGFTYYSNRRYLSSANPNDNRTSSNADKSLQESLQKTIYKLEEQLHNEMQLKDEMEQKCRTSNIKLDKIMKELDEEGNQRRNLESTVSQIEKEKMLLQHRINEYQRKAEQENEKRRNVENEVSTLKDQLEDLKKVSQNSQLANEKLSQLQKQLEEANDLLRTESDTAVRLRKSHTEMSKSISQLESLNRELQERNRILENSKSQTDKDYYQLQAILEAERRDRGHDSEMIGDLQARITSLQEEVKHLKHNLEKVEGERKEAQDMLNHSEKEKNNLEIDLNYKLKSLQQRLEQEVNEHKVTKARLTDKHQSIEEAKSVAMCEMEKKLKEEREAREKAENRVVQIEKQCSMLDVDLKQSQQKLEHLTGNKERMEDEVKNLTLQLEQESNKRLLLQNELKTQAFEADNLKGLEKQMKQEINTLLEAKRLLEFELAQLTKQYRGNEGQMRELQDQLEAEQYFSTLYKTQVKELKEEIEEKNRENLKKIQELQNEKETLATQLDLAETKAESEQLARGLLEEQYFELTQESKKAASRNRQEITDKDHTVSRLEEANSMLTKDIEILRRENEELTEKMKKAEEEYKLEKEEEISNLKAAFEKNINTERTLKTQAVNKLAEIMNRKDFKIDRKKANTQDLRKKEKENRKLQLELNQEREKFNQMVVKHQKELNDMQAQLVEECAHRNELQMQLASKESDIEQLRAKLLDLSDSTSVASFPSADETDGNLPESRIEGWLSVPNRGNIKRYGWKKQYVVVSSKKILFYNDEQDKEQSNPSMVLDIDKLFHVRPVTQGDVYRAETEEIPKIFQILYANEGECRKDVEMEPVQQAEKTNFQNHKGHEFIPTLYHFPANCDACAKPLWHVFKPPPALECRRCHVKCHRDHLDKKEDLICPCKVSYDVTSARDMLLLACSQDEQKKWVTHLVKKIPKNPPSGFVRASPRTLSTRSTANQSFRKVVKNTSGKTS

Regarding `O=C(Nc1ccc(-c2n[nH]c(=O)c3ccccc23)cc1)C1CC(c2cccc(Cl)c2F)=NO1` (stereo not drawn) [Example 193, 3-(3-chloro-2-fluorophenyl)-N-[4-(4-oxo-3,4-dihydrophthalazin-1-yl)phenyl]-4,5-dihydro-1,2-oxazole-5-carboxamide], the IC50 at ROCK2 fell in the range of 101 to 1000 nM; at ROCK1, 1000 to 50000 nM.

In the case of `COCCOc1ccn2ncc(C(=O)Nc3ccc(-c4n[nH]c(=O)c5ccccc45)cc3)c2c1` [Example 184, 5-(2-methoxyethoxy)-N-[4-(4-oxo-3,4-dihydrophthalazin-1-yl)phenyl]pyrazolo[1,5-a]pyridine-3-carboxamide], the IC50 on ROCK2 and at ROCK1 was 0.1 to 100 nM throughout.

As to `Cc1cc(NC(=O)c2nn(CCN(C)C)c3ccccc23)ccc1-c1n[nH]c(=O)c2ccccc12` [Example 303, 1-[2-(dimethylamino)ethyl]-N-[3-methyl-4-(4-oxo-3,4-dihydrophthalazin-1-yl)phenyl]-1H-indazole-3-carboxamide], the concentration for half-maximal inhibition (IC50) at ROCK2 lay within 0.1 to 100 nM; at ROCK1, 101 to 1000 nM.

Consider `O=C(Nc1ccc(-c2n[nH]c(=O)c3ccccc23)cc1)c1cnn2cc(OCCN3CCOCC3)ccc12` [Example 188, 6-[2-(morpholin-4-yl)ethoxy]-N-[4-(4-oxo-3,4-dihydrophthalazin-1-yl)phenyl]pyrazolo[1,5-a]pyridine-3-carboxamide], for which the IC50 against ROCK2 and on ROCK1 was 0.1 to 100 nM throughout.

As to `O=C(O)CCn1nc(C(=O)Nc2ccc(-c3n[nH]c(=O)c4ccccc34)cc2)c2ccccc21` [Example 331, 3-(3-((4-(4-Pxo-3,4-dihydrophthalazin-1-yl)phenyl)carbamoyl)-1H-indazol-1-yl)propanoic acid], the IC50 was 0.1 to 100 nM on ROCK2 and 101 to 1000 nM on ROCK1.

For `O=C(Nc1ccc(-c2n[nH]c(=O)c3ccccc23)cc1)c1nn(CCCO)c2ccccc12` [Example 164, 1-(3-hydroxypropyl)-N-[4-(4-oxo-3,4-dihydrophthalazin-1-yl)phenyl]-1H-indazole-3-carboxamide], the concentration for half-maximal inhibition (IC50) against ROCK2 and at ROCK1 was 0.1 to 100 nM each time.

For `O=C(Nc1ccc(-c2n[nH]c(=O)c3ccccc23)cc1)c1cnn2cc(OCCN3CCCC3)ccc12` [Example 176, N-[4-(4-oxo-3,4-dihydrophthalazin-1-yl)phenyl]-6-[2-(pyrrolidin-1-yl)ethoxy]pyrazolo[1,5-a]pyridine-3-carboxamide], the half-inhibitory concentration (IC50) against ROCK2 and at ROCK1 was 0.1 to 100 nM each time.

With `Cc1cc(NC(=O)c2cnc3ccccn23)ccc1-c1n[nH]c(=O)c2ccccc12` [Example 312, N-[3-methyl-4-(4-oxo-3,4-dihydrophthalazin-1-yl)phenyl]imidazo [1,2-a]pyridine-3-carboxamide], the half-inhibitory concentration (IC50) lay in the range of 0.1 to 100 nM at ROCK2 and 101 to 1000 nM at ROCK1.

With `CCn1cncc1C(=O)Nc1ccc(-c2n[nH]c(=O)c3ccccc23)cc1` [Example 233, 1-ethyl-N-[4-(4-oxo-3,4-dihydrophthalazin-1-yl)phenyl]-1H-imidazole-5-carboxamide], the IC50 on ROCK2 and on ROCK1 was 101 to 1000 nM each time.

In the case of `COC[C@@H]1CCCN1C(=O)Cc1ccc(-c2n[nH]c(=O)c3ccccc23)cc1` [Example 13, 4-(4-{2-[(2S)-2-(methoxymethyl)pyrrolidin-1-yl]-2-oxoethyl}phenyl)-1,2-dihydrophthalazin-1-one], the IC50 against ROCK2 and at ROCK1 was 1000 to 50000 nM throughout.

As for `Cc1ccc2[nH]c(C(=O)Nc3ccc(-c4n[nH]c(=O)c5ccccc45)cc3)cc2c1` [Example 101, 5-methyl-N-[4-(4-oxo-3,4-dihydrophthalazin-1-yl)phenyl]-1H-indole-2-carboxamide], the IC50 at ROCK2 and on ROCK1 was 0.1 to 100 nM each time.

As for `O=C(Nc1ccc(-c2n[nH]c(=O)c3ccccc23)cc1)c1nc2c(s1)CCCC2` [Example 53, N-[4-(4-oxo-3,4-dihydrophthalazin-1-yl)phenyl]-4,5,6,7-tetrahydro-1,3-benzothiazole-2-carboxamide], the IC50 against ROCK2 and on ROCK1 was 0.1 to 100 nM in each case.

Consider `Cc1c(C(=O)Nc2ccc(-c3n[nH]c(=O)c4ccccc34)cc2)nnn1-c1ccccc1F` [Example 222, 1-(2-fluorophenyl)-5-methyl-N-[4-(4-oxo-3,4-dihydrophthalazin-1-yl)phenyl]-1H-1,2,3-triazole-4-carboxamide], for which the half-inhibitory concentration (IC50) against ROCK2 and at ROCK1 was 0.1 to 100 nM each time.

On to `O=C(Nc1ccc(-c2n[nH]c(=O)c3ccccc23)cc1)c1cnn(-c2ccc(Cl)cc2)c1` [Example 388, 1-(4-Chlorophenyl)-N-(4-(4-oxo-3,4-dihydrophthalazin-1-yl)phenyl)-1H-pyrazole-4-carboxamide], for which the half-inhibitory concentration (IC50) on ROCK2 fell in the range of 0.1 to 100 nM; at ROCK1 it was 101 to 1000 nM.

With `CC(C)=Cn1nc(C(=O)Nc2ccc(-c3n[nH]c(=O)c4ccccc34)cc2)c2ccc(F)cc21` [Example 179, 6-fluoro-1-(2-methylprop-1-en-1-yl)-N-[4-(4-oxo-3,4-dihydrophthalazin-1-yl)phenyl]-1H-indazole-3-carboxamide], the IC50 on ROCK2 and at ROCK1 was 0.1 to 100 nM each time.

Consider `Cc1ccn2c(C(=O)Nc3ccc(-c4n[nH]c(=O)c5ccccc45)cc3)c(C)nc2c1` [Example 139, 2,7-dimethyl-N-[4-(4-oxo-3,4-dihydrophthalazin-1-yl)phenyl]imidazo[1,2-a]pyridine-3-carboxamide], for which the 50% inhibitory concentration (IC50) on ROCK2 and at ROCK1 was 0.1 to 100 nM in each case.

In the case of `O=C(Nc1ccc(-c2n[nH]c(=O)c3ccccc23)cc1)c1cnn(C2CCNC2)c1` (stereo not drawn) [Example 397, N-(4-(4-Oxo-3,4-dihydrophthalazin-1-yl)phenyl)-1-(pyrrolidin-3-yl)-1H-pyrazole-4-carboxamide], the IC50 was in the range of 101 to 1000 nM on ROCK2 and 1000 to 50000 nM at ROCK1.

As for `CC(C)(O)CNC(=O)Cn1nc(C(=O)Nc2ccc(-c3n[nH]c(=O)c4ccccc34)cc2)c2ccccc21` [Example 334, 1-(2-((2-Hydroxy-2-methylpropyl)amino)-2-oxoethyl)-N-(4-(4-oxo-3,4-dihydrophthalazin-1-yl)phenyl)-1H-indazole-3-carboxamide], the IC50 at ROCK2 and at ROCK1 was 0.1 to 100 nM in each case.

In the case of `O=C(Nc1ccc(-c2n[nH]c(=O)c3ccccc23)cc1)c1cnn(CC(F)F)c1` [Example 386, 1-(2,2-Difluoroethyl)-N-(4-(4-oxo-3,4-dihydrophthalazin-1-yl)phenyl)-1H-pyrazole-4-carboxamide], the figures for the 50% inhibitory concentration (IC50) against ROCK2 and at ROCK1 were 0.1 to 100 nM and 101 to 1000 nM, respectively.

For `O=C(Nc1ccc(-c2n[nH]c(=O)c3ccccc23)cc1)c1c2ccccc2nn1CC1COC1` [Example 143, 2-(oxetan-3-ylmethyl)-N-[4-(4-oxo-3,4-dihydrophthalazin-1-yl)phenyl]-2H-indazole-3-carboxamide], the IC50 on ROCK2 and at ROCK1 was 1000 to 50000 nM each time.

For `O=C(Cc1ccc(-c2n[nH]c(=O)c3ccccc23)cc1)N1CCc2ccc(OCc3ccccc3)cc21` [Example 83, 4-(4-(2-(6-(Benzyloxy)indolin-1-yl)-2-oxoethyl)phenyl)phthalazin-1(2H)-one], the IC50 against ROCK2 and on ROCK1 was 0.1 to 100 nM throughout.

Take `O=C(Oc1ccc(-c2n[nH]c(=O)c3ccccc23)cc1)N1CCC(c2ccccc2)C1` (stereo not drawn) [Example 69, 4-(4-Oxo-3,4-dihydrophthalazin-1-yl)phenyl 3-phenylpyrrolidine-1-carboxylate]: the results for the IC50 against ROCK2 and at ROCK1 were 101 to 1000 nM and 1000 to 50000 nM, respectively.

With `O=C(Nc1ccc(-c2n[nH]c(=O)c3ccccc23)c(CO)c1)c1nn(CC2CCOC2)c2cc(F)ccc12` (stereo not drawn) [Example 368, 6-Fluoro-N-(3-(hydroxymethyl)-4-(4-oxo-3,4-dihydrophthalazin-1-yl)phenyl)-1-((tetrahydrofuran-3-yl)methyl)-1H-indazole-3-carboxamide], the IC50 lay in the range of 0.1 to 100 nM on ROCK2 and 1000 to 50000 nM on ROCK1.

Take `COc1ccc2c(c1)N(C(=O)Cc1ccc(-c3n[nH]c(=O)c4ccccc34)cc1)CC2` [Example 41, 4-{4-[2-(6-methoxy-2,3-dihydro-1H-indol-1-yl)-2-oxoethyl]phenyl}-1,2-dihydrophthalazin-1-one]: the half-maximal inhibitory concentration (IC50) against ROCK2 and at ROCK1 was 0.1 to 100 nM in each case.

With `O=C(Nc1ccc(-c2n[nH]c(=O)c3ccccc23)cc1)c1n[nH]c(-c2ccccn2)n1` [Example 237, N-[4-(4-oxo-3,4-dihydrophthalazin-1-yl)phenyl]-5-(pyridin-2-yl)-1H-1,2,4-triazole-3-carboxamide], the half-maximal inhibitory concentration (IC50) against ROCK2 fell in the range of 0.1 to 100 nM; at ROCK1, 101 to 1000 nM.

Consider `CC(C)n1nc(C(=O)Nc2ccc(-c3n[nH]c(=O)c4ccccc34)c(CO)c2)c2ccccc21` [Example 364, N-(3-(Hydroxymethyl)-4-(4-oxo-3,4-dihydrophthalazin-1-yl)phenyl)-1-isopropyl-1H-indazole-3-carboxamide], for which the IC50 against ROCK2 fell in the range of 0.1 to 100 nM; at ROCK1, 101 to 1000 nM.

On to `Cn1nc(C(=O)Nc2ccc(-c3n[nH]c(=O)c4ccccc34)cc2)c2ccccc21` [Example 98, 1-methyl-N-[4-(4-oxo-3,4-dihydrophthalazin-1-yl)phenyl]-1H-indazole-3-carboxamide], for which the IC50 on ROCK2 and at ROCK1 was 0.1 to 100 nM each time.

For `CN1CCN(Cc2ccc3c(c2)CN(C(=O)Cc2ccc(-c4n[nH]c(=O)c5ccccc45)cc2)C3)CC1` [Example 25], the figures for the IC50 against ROCK2 and on ROCK1 were 0.1 to 100 nM and 101 to 1000 nM, respectively.

`O=C(Cc1ccc(-c2n[nH]c(=O)c3ccccc23)cc1)Nc1nc2ccccc2o1` [Example 10, N-(1,3-benzoxazol-2-yl)-2-[4-(4-oxo-3,4-dihydrophthalazin-1-yl)phenyl]acetamide]: the figures for the IC50 on ROCK2 and on ROCK1 were 0.1 to 100 nM and 101 to 1000 nM, respectively.

With `Cc1cc(NC(=O)c2onc3ccccc23)ccc1-c1n[nH]c(=O)c2ccccc12` [Example 306, N-[3-methyl-4-(4-oxo-3,4-dihydrophthalazin-1-yl)phenyl]-2,1-benzoxazole-3-carboxamide], the concentration for half-maximal inhibition (IC50) was in the range of 0.1 to 100 nM against ROCK2 and 101 to 1000 nM at ROCK1.

A word on the IC50: it is the midpoint of a concentration-inhibition curve.

The record behind these values is patent US9926282B2, “Phthalazinones and isoquinolinones as rock inhibitors” (BRISTOL-MYERS SQUIBB COMPANY, priority 2013, dated 2018).
